From ChEMBL document CHEMBL1201862, “PubChem BioAssay data set” (2004) come the findings set out here.

Among the test systems are CCRF-CEM; EKVX; NCI-H23; UACC-257; COLO 205; SNB-75; PC-3; A549; HCT-116; HL-60; BT-549; ACHN; MCF7; DU-145; 786-0; CAKI-1; IGROV-1; MDA-N.
Holding throughout (experiment): DTP human tumour cell line panel, 48 h

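A five-concentration, 48-hour dose response in 96-well plates underlies each endpoint, interpolated linearly between surrounding concentrations. At the GI50, growth is halved.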 Activity calls are given as the source filed them. Cut-off read from the data, not from the text of the source: active = GI50 up to about 1.1 µM and inactive = higher.

The GI50 is the concentration giving 50% growth inhibition. On to `O=S(=O)(c1ccccc1)c1ccc(-c2nc(-c3ccc4c(c3)Sc3ccccc3S4)cs2)cc1`, for which the GI50 with CCRF-CEM is 41.9 µM (inactive); with EKVX, 39.8 µM (inactive); in the experiment with NCI-H23 it was 11.2 µM (inactive); in the experiment on UACC-257, > 100 µM (inactive); in the experiment on COLO 205, > 100 µM (inactive); in the experiment on SNB-75 it was 10.8 µM (inactive). Also, the GI50 was > 100 µM (inactive) in the experiment with PC-3; > 100 µM (inactive) in the experiment with A549; 73.3 µM (inactive) with HCT-116; > 100 µM (inactive) in the experiment on HL-60; 30.3 µM (inactive) in the experiment on BT-549; 38.7 µM (inactive) in the experiment on ACHN. Moreover, the GI50 was 61 µM (inactive) with MCF7, > 100 µM (inactive) with DU-145, 17.2 µM (inactive) with 786-0 and > 100 µM (inactive) with CAKI-1.
Turning to `COc1ccc2oc(=O)c(-c3csc(C)n3)cc2c1`, the GI50 in the experiment on CCRF-CEM is > 100 µM (inactive); in the experiment on EKVX, 56.5 µM (inactive); with UACC-257, > 100 µM (inactive); in the experiment on COLO 205, > 100 µM (inactive); with SNB-75 it was 30.5 µM (inactive); with PC-3, > 100 µM (inactive). Also, the GI50 was > 100 µM (inactive) in the experiment on A549; 58.3 µM (inactive) in the experiment on HCT-116; > 100 µM (inactive) in the experiment on HL-60; 15.8 µM (inactive) in the experiment with BT-549; 49.4 µM (inactive) in the experiment on IGROV-1; 44.4 µM (inactive) in the experiment on ACHN. For the same compound, the GI50 is > 100 µM (inactive) in the experiment on MCF7, > 100 µM (inactive) with DU-145, 54.2 µM (inactive) in the experiment with 786-0 and > 100 µM (inactive) in the experiment on CAKI-1.
On to `CCC(C)C(NC(=O)c1c2ccccc2nc2ccccc12)C(=O)O` (configuration not stated), for which the GI50 in the experiment on CCRF-CEM was 31.7 µM (inactive); with EKVX, > 100 µM (inactive); with NCI-H23 it was 83 µM (inactive); with UACC-257, > 100 µM (inactive); with COLO 205, > 100 µM (inactive); in the experiment with SNB-75, > 100 µM (inactive). Moreover, the GI50 was > 100 µM (inactive) in the experiment with PC-3; 77.3 µM (inactive) in the experiment with A549; > 100 µM (inactive) in the experiment with HCT-116; 22.6 µM (inactive) in the experiment on BT-549; 86.5 µM (inactive) in the experiment on IGROV-1; > 100 µM (inactive) with ACHN. For the same compound, the GI50 with MCF7 was 98.9 µM (inactive); in the experiment with DU-145, > 100 µM (inactive); in the experiment with 786-0, > 100 µM (inactive); in the experiment on CAKI-1 it was > 100 µM (inactive).
`Nc1ncnc2c1ncn2C1CCC(CP(=O)(O)O)C1` (configuration not stated): the GI50 in the experiment with EKVX, with NCI-H23, in the experiment with UACC-257, in the experiment on COLO 205, in the experiment on PC-3 and in the experiment with A549 was > 100 µM (inactive) each time. The GI50 in the experiment with HCT-116, with MDA-N, in the experiment on HL-60, in the experiment with IGROV-1, in the experiment on ACHN and in the experiment on MCF7 was > 100 µM (inactive) throughout. Further, the GI50 in the experiment on DU-145 and in the experiment with 786-0 was > 100 µM (inactive) in each case.
As for `CC(=O)c1ccc(Br)cc1NC1=CC(=O)c2ncccc2C1=O`, the GI50 was 3.47 µM (inactive) in the experiment on CCRF-CEM; 6.4 µM (inactive) in the experiment with EKVX; 2 µM (inactive) in the experiment with NCI-H23; 1.48 µM (inactive) with UACC-257; 3.18 µM (inactive) in the experiment on COLO 205; 0.242 µM (active) in the experiment on SNB-75. Also, the GI50 in the experiment with PC-3 was 3.95 µM (inactive); in the experiment on A549, 2.4 µM (inactive); in the experiment with HCT-116, 1.9 µM (inactive); in the experiment on MDA-N it was 1.81 µM (inactive); with HL-60 it was 1.64 µM (inactive); in the experiment with IGROV-1, 2.69 µM (inactive). Besides, the GI50 with ACHN was 3.6 µM (inactive); in the experiment on MCF7, 1.38 µM (inactive); in the experiment with DU-145, 4.36 µM (inactive); with 786-0, 3.71 µM (inactive); with CAKI-1, 7.59 µM (inactive).
Consider `CCCCCCCCCC(=O)CC(=O)c1c(O)cc(O)cc1O`, for which the GI50 in the experiment with CCRF-CEM was 34.3 µM (inactive); in the experiment on EKVX it was 31.5 µM (inactive); in the experiment with NCI-H23 it was 17.3 µM (inactive); with UACC-257, 23.4 µM (inactive); in the experiment with COLO 205, 26.6 µM (inactive); in the experiment with SNB-75 it was 22.2 µM (inactive). The GI50 in the experiment with PC-3 is 17.9 µM (inactive); with A549 it was 25.6 µM (inactive); in the experiment with HCT-116, 24.4 µM (inactive); in the experiment with MDA-N, 16.9 µM (inactive); with HL-60 it was 17.9 µM (inactive); with IGROV-1, 26.5 µM (inactive). The GI50 in the experiment on ACHN was 27 µM (inactive); in the experiment with MCF7, 39.1 µM (inactive); with DU-145, 22.4 µM (inactive); with 786-0 it was 28 µM (inactive); in the experiment with CAKI-1 it was 31.1 µM (inactive).
Regarding `C/C(=N/NC(=S)Nc1ccccc1Cl)c1cccc(/C(C)=N\NC(=S)Nc2ccccc2Cl)n1`, the GI50 with CCRF-CEM is 9.79 µM (inactive); in the experiment on EKVX, > 100 µM (inactive); in the experiment with NCI-H23, 54.7 µM (inactive); in the experiment on UACC-257 it was 67 µM (inactive); with COLO 205, 56.8 µM (inactive); in the experiment on SNB-75, > 100 µM (inactive). Moreover, the GI50 in the experiment with PC-3 was 36.1 µM (inactive); in the experiment on A549 it was 29.6 µM (inactive); in the experiment on HCT-116, 16.1 µM (inactive); with MDA-N it was > 100 µM (inactive); with HL-60, > 100 µM (inactive); in the experiment with IGROV-1, 42.2 µM (inactive). Moreover, the GI50 in the experiment with ACHN was 55.5 µM (inactive); in the experiment with MCF7, 15.1 µM (inactive); in the experiment on DU-145, > 100 µM (inactive); with 786-0, 7.33 µM (inactive); in the experiment on CAKI-1, > 100 µM (inactive).
Regarding `O=C1NC2c3c(I)sc(I)c3C(O)C2O1` (configuration not stated), the GI50 in the experiment on CCRF-CEM is 52.8 µM (inactive); with EKVX, > 100 µM (inactive); with NCI-H23 it was > 100 µM (inactive); in the experiment on UACC-257, > 100 µM (inactive); in the experiment on COLO 205, > 100 µM (inactive); in the experiment on SNB-75, > 100 µM (inactive). Also, the GI50 with PC-3, in the experiment with A549, in the experiment on HCT-116, in the experiment on MDA-N, with HL-60 and in the experiment on IGROV-1 was > 100 µM (inactive) throughout. Moreover, the GI50 with ACHN, in the experiment with MCF7, in the experiment with DU-145, in the experiment with 786-0 and in the experiment with CAKI-1 was > 100 µM (inactive) in each case.
Consider `CCCNc1ncnc2c1ncn2C`, for which the GI50 in the experiment with CCRF-CEM was 22.1 µM (inactive); in the experiment with EKVX, > 100 µM (inactive); with NCI-H23, 35.6 µM (inactive); in the experiment on UACC-257 it was > 100 µM (inactive); with COLO 205 it was 96.4 µM (inactive); in the experiment with SNB-75 it was 38.5 µM (inactive). The GI50 in the experiment on PC-3 is > 100 µM (inactive); in the experiment on A549, > 100 µM (inactive); in the experiment with HCT-116, > 100 µM (inactive); in the experiment with MDA-N, > 100 µM (inactive); in the experiment on HL-60 it was 32.9 µM (inactive); in the experiment on IGROV-1, 54.7 µM (inactive). Also, the GI50 is 51.6 µM (inactive) with ACHN; 53.6 µM (inactive) in the experiment on MCF7; 85.3 µM (inactive) with DU-145; 48.8 µM (inactive) in the experiment with 786-0; 36.1 µM (inactive) with CAKI-1.
